Laboratory results published in patent US11382880B2, “Method for improving digestive health” (Brightseed, Inc., priority 2019, dated 2022).

Assays:
[1] = target: T1, HNF4α (Homo sapiens, UniProt P41235); set-up: endogenous in cells; host or cells: T6PNE engineered pancreatic cells; settings: Lee, et al. (2013); cited from earlier work
T1 sequence (P41235 1-474): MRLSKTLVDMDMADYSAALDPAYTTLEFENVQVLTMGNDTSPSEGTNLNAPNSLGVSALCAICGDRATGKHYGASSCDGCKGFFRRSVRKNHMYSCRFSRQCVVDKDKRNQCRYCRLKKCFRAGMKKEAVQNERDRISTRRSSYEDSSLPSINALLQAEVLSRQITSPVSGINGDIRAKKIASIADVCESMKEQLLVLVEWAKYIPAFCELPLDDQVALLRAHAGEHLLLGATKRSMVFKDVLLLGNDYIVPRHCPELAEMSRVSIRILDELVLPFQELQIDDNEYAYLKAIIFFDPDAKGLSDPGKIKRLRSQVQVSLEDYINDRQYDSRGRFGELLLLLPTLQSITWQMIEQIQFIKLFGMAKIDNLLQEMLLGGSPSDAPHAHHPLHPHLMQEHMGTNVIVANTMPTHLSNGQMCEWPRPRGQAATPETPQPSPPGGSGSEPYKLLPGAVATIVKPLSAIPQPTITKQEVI

[2] = target: T1, HNF4α; test: Insulin promoter-reporter assay measuring HNF4α activity (T6PNE engineered pancreatic cell); assay type: cell-based; set-up: endogenous in cells; host or cells: T6PNE engineered pancreatic cells; settings: for HNF4α modulator activity in screening: screening of predicted plant compounds in the HNF4α assay
Procedure: FIG. 1 illustrates a dose-response analysis of N-trans-caffeoyltyramine, N-trans-feruloyltyramine and p-coumaroyltyramine in an assay measuring insulin promoter activity. Dimethylsulfoxide (DMSO) and alverine (20 μM) were used as negative and positive controls, respectively.
The tyramine containing hydroxycinnamic acid amide of this disclosure are analogs of lead compounds identified in traditional screening assays for agents that modulate known signaling pathways. […] While not wishing to be bound by theory, it is believed that the tyramine containing hydroxycinnamic acid amides of this disclosure increase HNF4α activity as a result of higher affinity for the HNF4α binding site than the natural ligand, palmitic acid, which down regulates HNF4α activity. Accordingly, by increasing HNF4α activity, the compounds of this disclosure are of use in improving heal thy digestive function, thereby addressing the underlying pathogenesis of gastrointestinal disorders such as IBD, UC, and CD. Using the composition of this disclosure, health and well-being are improved and promoted.
Given the role of HNF4α in maintaining a healthy metabolism in humans, test compounds were screened for activity as HNF4α agonists (either direct or indirect effects). Using a known insulin promoter-reporter assay, Kiselyuk and colleagues (2010. J. Biomol. Screen 15(6): 663-70), screened a library of compounds for activity to promote insulin activation. […] The OTC promoter is known to be responsive to HNF4α in transient transfection assays (Inoue, et al. (2002) J. Biol. Chem. 277:25257-65).
Plant compounds in the top 10th percentile of similarity to the 18 target structures were selected and compounds predicted to be potential agonists of HNF4α activity given their chemical structural features were screened in the HNF4α assay. […] Due to hydroxyl derivatization of both phenyl rings, N-transcaffeoyltyramine is less lipophilic and therefore expected to be more bioavailable.

[3] = system: HNF4α mRNA; test: HNF4α mRNA levels by quantitative PCR; assay type: cell-based; settings: FIG. 2
Procedure: FIG. 2 illustrates the effect of N-trans-caffeoyltyramine, N-trans-feruloyltyramine and p-coumaroyltyramine on HNF4α mRNA levels as determined by quantitative PCR. DMSO and alverine (20 μM) were used as negative and positive controls, respectively.
Expression of Insulin and HNF4α. RNA was purified using a RNEASY® chromatographic separation and isolation kits (Qiagen), and converted to cDNA using the gScript™ cDNA SuperMix (Quanta Biosciences). Q-PCR was conducted with cDNA corresponding to 2 μg of RNA using an Optic on Real-Time System (MJ Research) and QPCR SuperMix (BioPioneer). See All mRNA values were normalized to 18S rRNA values and are expressed as fold changes over vehicle-treated control.

[4] = pH Stability Assessment; assay type: physicochemical; settings: pH 2, 7.4, 8.5 and 10; 37° C.; 0.5 and 72 hours; HPLC peak area at 280 nm
Procedure: pH Stability Assessment. Individual stock solutions were prepared in DMSO at concentrations of 10 mg/mL. Four different buffer solutions were prepared to achieve solutions with a pH of 2, 7.4, 8.5 and 10. For each pH assay, 5 μL of stock solution was added to 245 μL of buffered solution to a 2 mL tube, vortexed and incubated in a 37° C. water bath. At each timepoint, 50 μL aliquots were taken, neutralized and analyzed via HPLC analysis using a DAD detector at 280 nm. The fold change of the peak area at 280 nm was analyzed for the initial and final timepoint, 0.5 and 72 hours, respectively.

[5] = Bioavailability determination in male C57BL/6 mice; assay type: in vivo; settings: mouse, whole blood, IV 2.0 mg/kg, oral 30.0 mg/kg, IP 30 mg/kg, route of the printed value not stated
Procedure: Bioavailability Determinations. Male C57BL/6 mice were administered N-trans-caffeoyl tyramine or N-transferuloyl tyramine via IV, intraperitoneal or oral route (three mice for each route) (Table 2).
A blood sample from each mouse was drawn at 0.25, 0.5, 1, 2, 4, 6 and 24 hours after administration. An 8 μL aliquot of blood was used for analysis. After adding 200 μL of an internal standard comprising 100 ng/mL Labetalol, 100 ng/mL dexamethasone, 100 ng/mL tolbutamide, 100 ng/mL Verapamil, 100 ng/mL Glyburide, and 100 ng/mL Celecoxib in ACN, the mixture was vortex-mixed and centrifuged at 12000 rpm for 15 minutes at 4° C. to pellet precipitated protein. Four μL of the supernatant was injected for LC-MS/MS analysis. Bioavailability (%) was calculated using AUC0-inf (% AUCExtra<20%) or AUC0-last(% AUCExtra>20%) with nominal dose.

[6] = system: CaCo-2 cells; test: TNF-α induced tight junction damage in CaCo-2 monolayer, ZO-1 staining; assay type: cell-based; settings: 200 ng or 300 ng TNF-α
Procedure: TNF-α is an inflammatory cytokine that increases intestinal tight junction permeability. To analyze the effect of N-trans-caffeoyltyramine on tight junctions, 200 ng or 300 ng TNF-α was added to a monolayer of epithelial CaCo-2 cells to induced tight junction damage. After TNF-α exposure, N-trans-caffeoyltyramine was added and tight junction formation was determined by antibody staining for zonula occludens (ZO) −1. […] The CaCo-2 cells was sorted for high TNF-α expression with compromised integrity of tight junctions. Increasing concentration of exogenous TNF-α from 200 ng to 300 ng reduced ZO-1 staining.

[7] = system: HNF4α; test: Intestinal HNF4α expression in C57BL/6 mice after IP dosing; assay type: in vivo; settings: IP twice a day for 14 days
Procedure: Primary Antibodies. HNF4α antibodies were used (#sc-6556, Santa Cruz Biotechnology; Santa Cruz, Calif. and #3113, Cell Signaling Technology; Danvers, Mass.). For fluorescent imaging, samples were incubated with ALEXA FLUOR® 488 green-fluorescent dye or Rhodamine labeled anti-mouse, rabbit or goat and nuclei were counterstained with DAPI (4′,6-diamidino-2-phenylindole). […] were analyzed with a conventional inverted microscope (Olympus, PlanFl 40×/0.60) or with a confocal microscope equipped with a krypton/argon laser.
To confirm the in vivo […] samples were harvested and stained to visualize HNFα expression, ZO-1 and DAPI staining.

[8] = system: HNF4α; test: HNF4α expression in the intestine of DIO mice; assay type: in vivo; settings: villi and crypt
From the text: FIG. 4 illustrates HNF4α is increased in the intestine of DIO mice treated with NCT.
(§1) Intestine from mice treated with DMSO or N-trans-caffeoyltyramine were examined histologically. Gross morphological appearance was unchanged. […] In both, HNF4α was highly expressed in the crypt, with much less being detectable in the villi (see FIG. 4). […] Paneth cells are specialized secretory cells that play a critical role in defenses against intestinal microbes. To that end, they secrete a variety of antimicrobial peptides. Of note, Paneth cells play an important role in IBD pathogenesis. High fat diet has been reported to reduce the number of Paneth cells, and our studies reproduced that finding (see FIG. 4), but the mechanism by which that occurs has not been understood.

[9] = system: Paneth cells; test: Number of Paneth cells in the intestine of DIO mice; assay type: in vivo; settings: DIO mice (high fat diet)
From the text: FIG. 5 illustrates paneth cells are increased in the intestine of DIO mice treated with NCT.
as §1

[10] = system: Intestine; test: Histological examination of intestine, gross morphology; assay type: in vivo; settings: mice treated with DMSO or N-trans-caffeoyltyramine
From the text: as §1

[11] = target: T1, HNF4α; settings: cited from earlier work
[12] = target: T1, HNF4α; set-up: endogenous in cells; host or cells: T6PNE engineered pancreatic cells; settings: Kiselyuk, et al. (2012); cited from earlier work

CCN(CCCc1ccccc1)CCCc1ccccc1 [Alverine]
Activity as HNF4α activators [1]: activity as HNF4α activators

CC(Cc1cccc(C(F)(F)F)c1)NCCOC(=O)c1ccccc1 (stereo not shown) [Benfluorex]
Activity as HNF4α activators [1]: activity as HNF4α activators

O=C(/C=C\c1ccc(O)c(O)c1)NCCc1ccc(O)cc1 [N-cis-caffeoyltyramine]
HNF4α modulator activity in screening [2]: able to act as HNF4α modulators

O=C(/C=C/c1ccc(O)cc1)NCCc1ccc(O)c(O)c1 [N-coumaroyldopamine]
HNF4α gene expression (quantitative PCR) [3]: inactive

O=C(/C=C/c1ccc(O)c(O)c1)NCCc1ccc(O)cc1 [N-trans-caffeoyltyramine]
HNF4α gene expression (quantitative PCR) [3]: upregulated | pH Stability [4]: Acid Stable | bioavailability [5]: ~11% | Effect on TNF-α reduced ZO-1 staining (tight junctions) [6]: reversed the effects of TNF-α on ZO-1 | HNF4α expression in intestinal lining [7]: induced HNF4α expression in the intestinal lining | HNF4α expression in intestine [8]: large increase in HNF4α expression throughout | HNF4α expression in intestine ([8]; listed as NCT): increased | Number of Paneth cells [9]: complete recovery in the number of Paneth cells | Number of Paneth cells ([9]; listed as NCT): increased | Gross morphological appearance of intestine [10]: unchanged | Potency in activating HNF4α compared with Alverine ([2]; FIG. 1, alverine 20 μM positive control): roughly an order-of-magnitude more potent than Alverine | HNF4α modulator activity in screening [2]: able to act as HNF4α modulators

COc1cc(/C=C/C(=O)NCC(O)c2ccc(O)cc2)ccc1O (stereo not drawn) [N-trans-feruloyloctopamine]
HNF4α gene expression (quantitative PCR) [3]: inactive

COc1cc(/C=C/C(=O)NCCc2ccc(O)cc2)ccc1O [N-trans-feruloyltyramine]
HNF4α gene expression (quantitative PCR) [3]: upregulated | pH Stability [4]: Stable | bioavailability [5]: ~7% | HNF4α modulator activity in screening [2]: able to act as HNF4α modulators

COc1cc(/C=C\C(=O)NCCc2ccc(O)cc2)ccc1O [cis-feruloyltyramine]
HNF4α gene expression (quantitative PCR) [3]: inactive

CCN(CCCCc1ccccc1)CCc1ccccc1 [compound 1]
HNF4α agonistic activity in OTC promoter assay [11]: HNF4α agonistic activity | Insulin activation in insulin promoter-reporter screen [12]: insulin activator

O=C(/C=C/c1ccc(O)cc1)NCCc1ccc(O)cc1 [p-coumaroyltyramine]
HNF4α gene expression (quantitative PCR) [3]: upregulated | pH Stability [4]: Acid Stable | HNF4α modulator activity in screening [2]: able to act as HNF4α modulators

O=C(/C=C/c1ccc(O)cc1)NCC(O)c1ccc(O)cc1 (stereo not shown) [pcoumaroyloctopamine]
HNF4α gene expression (quantitative PCR) [3]: inactive
